Data taken from patent US5492822A, “Method for recovering purified 100,000 dalton molecular weight fraction of human pancreatic cholesterol esterase” (Lange, III; Louis G., priority 1995, dated 1996).
Blank lines part the entries; values can stand above or below the molecule they belong to.

Columns and labels:
[1] = target: T1, human pancreatic cholesterol esterase (Homo sapiens, UniProt P19835); test: Binding of 125I-cholesterol esterase to small intestine vesicles and its displacement
T1 construct: from tissue; host or cells: human pancreas (autopsy)
T1 sequence (P19835 21-753): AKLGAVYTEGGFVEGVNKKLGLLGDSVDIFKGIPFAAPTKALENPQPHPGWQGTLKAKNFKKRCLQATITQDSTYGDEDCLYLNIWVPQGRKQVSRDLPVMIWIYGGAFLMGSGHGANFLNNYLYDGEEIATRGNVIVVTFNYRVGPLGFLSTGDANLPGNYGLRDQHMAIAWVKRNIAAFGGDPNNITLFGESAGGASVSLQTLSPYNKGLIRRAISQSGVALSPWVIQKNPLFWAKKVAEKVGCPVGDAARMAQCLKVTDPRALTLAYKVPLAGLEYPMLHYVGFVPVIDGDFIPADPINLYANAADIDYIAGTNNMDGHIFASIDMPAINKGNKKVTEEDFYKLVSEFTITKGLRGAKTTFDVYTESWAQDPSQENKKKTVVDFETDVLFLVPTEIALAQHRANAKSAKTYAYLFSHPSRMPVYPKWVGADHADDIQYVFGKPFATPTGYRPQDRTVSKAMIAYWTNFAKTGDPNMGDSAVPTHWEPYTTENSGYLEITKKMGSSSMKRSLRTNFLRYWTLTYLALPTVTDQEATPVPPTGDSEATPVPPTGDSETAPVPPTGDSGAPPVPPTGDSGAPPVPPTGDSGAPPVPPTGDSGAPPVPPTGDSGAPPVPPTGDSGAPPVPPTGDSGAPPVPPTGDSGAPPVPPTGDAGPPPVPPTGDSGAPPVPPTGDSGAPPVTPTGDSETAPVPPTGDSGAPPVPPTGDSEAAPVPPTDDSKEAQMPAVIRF
Protocol: (§1) Vesicles contained 1.0 mg protein/ml, 30 ug total cholesterol/mg protein and 50 ug endogenous heparin/mg protein. ^125 I-cholesterol esterase (100K or 67K form) was added (0 to 400 pmol; 2,000 dpm/pmol) to 100 ug of protein of small intestine vesicles in 10 mM Tris-Cl, pH 7.2 for 15 min. at 37°. The concentration of offered ^125 I-cholesterol esterase varied between 10 nM and 1 uM. Experiments were performed utilizing 1% blotto to decrease nonspecific protein binding to the vesicles. After the 15 minute incubation at 37°, the reaction was quenched and the assay mixtures were filtered through wells of a Millipore system containing 0.2 micron pore filters presoaked in buffer. The filtrate was-collected to assess free (unbound) enzyme, and the filters were then immediately washed with 15 ml of cold buffer and counted for ^125 I. Total binding was defined as ^125 I-dpm bound to filter paper minus ^125 I-dpm detected in the same reaction without vesicles (background). Nonspecific binding (radioactivity bound to the vesicles in the presence of excess cold ligand) was quantitated as the amount of ^125 I-cholesterol esterase binding in the presence of a 1000-fold molar excess of unlabeled cholesterol esterase as described above. Specific binding is defined as the difference between total bound dpm and nonspecific-bound dpm (converted to moles bound by dividing by the SRA).

[2] = test system: human pancreatic cholesterol esterase; test: as above
Protocol: as §1

[3] = target: T2, human pancreatic triglyceride lipase (52 kDa) (Homo sapiens, UniProt P16233); test: Triolein hydrolysis by human pancreatic triglyceride lipase (52 kDa); type: biochemical
T2 sequence (P16233 17-465): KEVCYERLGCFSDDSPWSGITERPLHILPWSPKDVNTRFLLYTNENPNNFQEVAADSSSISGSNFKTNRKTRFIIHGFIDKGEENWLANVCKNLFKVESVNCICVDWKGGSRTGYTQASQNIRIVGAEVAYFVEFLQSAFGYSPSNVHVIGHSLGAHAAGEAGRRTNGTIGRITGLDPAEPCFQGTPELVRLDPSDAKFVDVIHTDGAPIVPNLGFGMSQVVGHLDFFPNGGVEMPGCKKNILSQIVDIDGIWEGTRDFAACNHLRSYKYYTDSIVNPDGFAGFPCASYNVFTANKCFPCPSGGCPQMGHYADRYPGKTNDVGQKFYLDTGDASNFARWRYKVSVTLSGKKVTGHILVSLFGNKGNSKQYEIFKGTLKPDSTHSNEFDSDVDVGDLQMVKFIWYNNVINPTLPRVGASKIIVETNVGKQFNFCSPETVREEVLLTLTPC
Text: (§2) Human pancreatic cholesterol esterase (100 kDa) and human pancreatic triglyceride lipase (52 kDa) were purified to homogeneity (Examples 1 and 3), and their abilities to cleave triglycerides and cholesteryl esters were compared. […] Virtually the same results were found with cholesteryl esters; the 100 kDa enzyme cleaved cholesterol oleate at a rate at least 490-fold greater than that found for the 52 kDa triglyceride lipase.

[4] = target: T3, human pancreatic cholesterol esterase (100 kDa) (Homo sapiens, UniProt P19835); test: Triolein hydrolysis by human pancreatic cholesterol esterase (100 kDa); type: biochemical
T3 construct: from tissue; host or cells: human pancreas (autopsy)
T3 sequence (P19835 21-753): T1 sequence (P19835 21-753)
Text: as §2

[5] = target: T1, human pancreatic cholesterol esterase; test: Elution of human pancreatic cholesterol esterase bound to heparin immobilized on Sepharose; type: binding; conditions: 5 mg/ml chondroitin sulfate
[6] = test system: small intestine membrane vesicles (membrane-bound heparin); test: Binding of 125I-labeled bovine pancreatic enzymes to small intestine membrane vesicles; conditions: 125I-labeled bovine pancreatic enzyme, 1% Blotto
Protocol: as §1, with “Exogenous heparin inhibits the interaction and binding of pancreatic choleserol esterase to small intestine vesicles prepared from proximal small intestine segments homogenized in 10 mM Tris-Cl, pH 7.2, and centrifuged at 48,000 X g for 45 minutes. Vesicles” for “Vesicles”, “After the 15 minute incubation at 37°, the reaction was quenched and the assay mixtures were filtered through wells of a Millipore system containing 0.2 micron pore filters presoaked in buffer.” left out, “Specific binding is defined as the difference between total bound dpm and nonspecific-bound dpm (converted to moles bound by dividing by the SRA).” left out

CaCo cells = test: Cellular uptake of [14C]oleate from [14C]triolein; type: cell-based; conditions: at eight hours
Protocol: Confluent monolayers of 2×10^6 CaCo cells (Example 5b) were incubated with 2 mM taurocholate and with [^14 C]triolein (5 uM) embedded in phosphatidylcholine vesicles. In the absence of triglyceride lipase, cellular uptake of [^14 C] oleate was linear and at eight hours was 204 pmol. In the presence of human triglyceride lipase (25 nM) and colipase (400 nM), uptake was brisk, reaching 706 pmol at eight hours. Moreover, enzyme-mediated uptake was also dependent on the presence of colipase in the medium, since uptake was only 229 pmol at eight hours in its absence. Heparin (400 uM) added to medium containing triglyceride lipase and colipase reduced uptake from 706 pmol to 329 pmol at eight hours. Thus, heparin decreased cellular uptake of oleate (oleic acid) from cleaved triglyceride by 75%.

[7] = Cholesterol ester synthesis versus hydrolysis by the 52K form; type: biochemical, human
Protocol: Human pancreatic cholesterol esterase (52K form) can be isolated as follows. Cytosol prepared as above from 30 g pancreas is dialyzed versus 10 mM Tris-Cl, 50 mM benzamidine, pH 8.2 and then chromatographed over DEAE cellulose (2.6×25 cm). Unlike the higher molecular weight forms of cholesterol esterase which bind under these conditions, the 52K species rapidly passes through DEAE cellulose at pH 8.2, with a 40-fold purification and 80% yield. Subsequent chromatography over hydroxylapatite and heparin-Sepharose yields a homogeneous protein (SDS-PAGE, M.W.=52K) with enzymatic activity expressed principally in the synthetic direction for cholesterol esters (rate of synthesis/rate of hydrolysis=10/1). This species also cross-reacts in western blotting to anti-cholesterol esterase antibodies.

Molecule: [Cl-].[Na+] [NaCl, reference compound]
- displacement of cholesterol esterase from vesicles ([1]; 150 mM NaCl): ineffective
- effect on specific binding of 125I-cholesterol esterase to vesicles ([2]; isotonic saline): no effect
- inhibition of triolein hydrolysis by the 52 kDa enzyme ([3]; 0.15 M NaCl): 68%
- effect on triolein hydrolysis by the 100 kDa esterase ([4]; 0.15 M NaCl): unaffected

Molecule: chondroitin sulfate
- elution of bound enzyme from heparin-Sepharose [5]: completely ineffective
- displacement of cholesterol esterase from vesicles ([1]; 10 mg/ml chondroitin sulfate): ineffective
- decrease of specific binding of 125I-cholesterol esterase to vesicles ([2]; 0.5 to 100-fold molar excesses): less than 10%

B1: Human pancreatic cholesterol esterase (52K form): 52K protein isolated as in Example 3; called triglyceride lipase in Example 10 (protein, UniProt P16233 17-465, looked up)
Pancreatic triacylglycerol …: T2 sequence (P16233 17-465)
- rate of triolein hydrolysis ([3]; homogeneous 52 kDa enzyme): 27 nmol/hr/g pancreas
- cellular uptake of [14C]oleate (CaCo cells; human triglyceride lipase 25 nM and colipase 400 nM): 706 pmol
- cellular uptake of [14C]oleate (CaCo cells; triglyceride lipase in the absence of colipase): 229 pmol
- rate of synthesis/rate of hydrolysis of cholesterol esters [7]: 10/1

More lines, now with the values ahead:

- binding to small intestine membrane vesicles / membrane-bound heparin [6]: do not bind
Molecule: phospholipase A2: bovine pancreatic phospholipase A2 radiolabeled with Na125I

- stimulation of triolein hydrolysis by the 52 kDa enzyme ([3]; 10-fold excess of colipase): 375%
- effect on triolein hydrolysis by the 100 kDa esterase ([4]; 50-fold molar excess of colipase): unaffected
B2: colipase: cofactor protein added to triglyceride lipase (protein, UniProt P04118 23-112, looked up)
Colipase: GIIINLENGELCMNSAQCKSNCCQHSSALGLARCTSMASENSECSVKTLYGIYYKCPCERGLTCEGDKTIVGSITNTNFGICHDAGRSKQ
